The text below walks through data of US20060275339A1, “Use of antiseptic active principles in pmma bone cements” (Biomet Deutschland, priority 2003, published 2006).

In the experiment the test system is germs. Briefly: Prevention of colonisation of the PMMA bone cement surface with germs (FIGS. 1a and 1b). It counts as cell-based. To be noted: 0.155% by weight admixed with PMMA bone cement (PALAMED plain); compared with admixing of 0.86% by weight of gentamicin.

On to polyhexamethylenebiguanide, for which the “biological efficacy in preventing colonisation of the cement surface with germs” value is given as “same (or higher) biological efficacy”.
